Results published in PMC7957705 (Molecules, 2021).
Where two headings read alike, the source gives them in different places. Where a SMILES comes first, the peptide text is derived from it. Bridges are numbered along the chain shown (N, C = ends). Triazole bridges read from a SMILES are 1,4-linked. [ ]: non-standard residue; d: D form. The star is where a group is joined. Benzoyl(4-guanidino) = N=C(N)Nc1ccc(C(=O)*)cc1; Aha = [N-]=[N+]=NCC[C@H](N)C(=O)O; β3hV = CC(C)[C@H](N)CC(=O)O; Pra = C#CC[C@H](N)C(=O)O

Columns and labels:
[1] = system: treated animals; details: cited from earlier work
[2] = target: T1, human MCH-R1 (Homo sapiens, UniProt Q99705); assay: MCH-induced cytosolic Ca2+ ion mobilization, antagonist effect; type: cell-based; details: for Ki: antagonism of MCH-induced cytosolic Ca2+ mobilization, read-out: Ki (functionality, antagonism at MCH-R1)
T1 construct: expressed in transfected cells
T1 sequence (Q99705 whole entry): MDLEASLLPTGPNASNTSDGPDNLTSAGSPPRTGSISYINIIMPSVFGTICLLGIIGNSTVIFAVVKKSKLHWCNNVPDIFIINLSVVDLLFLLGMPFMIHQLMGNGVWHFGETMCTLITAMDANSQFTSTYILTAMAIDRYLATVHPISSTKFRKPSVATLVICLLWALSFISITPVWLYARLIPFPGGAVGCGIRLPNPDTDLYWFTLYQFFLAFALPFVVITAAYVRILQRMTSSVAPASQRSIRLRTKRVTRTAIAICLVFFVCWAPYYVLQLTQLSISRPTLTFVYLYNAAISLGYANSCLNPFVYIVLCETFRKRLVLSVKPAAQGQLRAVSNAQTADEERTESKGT
Experimental: The functional assay was run onto cells expressing the hMCH-R1 receptor, as described in Wang et al.. In brief, the cells are suspended in DMEM buffer (Invitrogen), then distributed in microplates at a density of 4.104 cells/well. The fluorescent probe (Fluo4 Direct, Invitrogen) mixed with probenecid in Hanks’ Balanced Salt solution (HBSS) (Invitrogen) complemented with 20 mM HEPES (Invitrogen) (pH 7.4) is then added into each well and equilibrated with the cells for 60 min at 37 °C, then 15 min at 22 °C. Then, the assay plates are positioned in a microplate reader (CellLux, PerkinElmer) which is used for the addition of the test compound, reference agonist or HBSS buffer (basal control), and the measurements of changes in fluorescence intensity, which varies proportionally to the free cytosolic Ca^2+ ion concentration. For stimulated control measurements, MCH at 300 nM is added in separate assay wells. The results are expressed as a percentage of the control response to 300 nM MCH. The standard reference agonist is MCH, which is tested in each experiment at several concentrations to generate a concentration-response curve from which its EC50 value is calculated. For the antagonist effect, the results are expressed as a percentage inhibition of the control response to 30 nM MCH, which was added to all tested wells and controls 5 min after the candidate products.

[3] = target: T1, human MCH-R1; assay: Binding displacement of [125I]-[Phe13,Tyr19]-MCH at membranes expressing human MCH-R1
Experimental: Stable cell lines were obligatory for all receptor programs. We cloned the human receptor and established the cell line as previously described. In brief, HEK293 (HEK) cells were grown in Dulbecco’s Modified Eagle medium (DMEM) supplemented with 10% fetal calf serum, 2 mM glutamine, 100 IU/mL penicillin and […] streptomycin. They were seeded at 5 × 10^6 cells in T75 cm^2 culture flasks. One day later, they were transfected with […] of the pcDNA3.1 (Invitrogen, Groningen, The Netherlands) containing the human MCH-R1 using lipofectamine (Life Technologies, Cergy Pontoise, France), as previously described. One day later, cells were trypsinized, resuspended in a complete DMEM medium containing […] of geneticin and seeded at different dilutions in 96-well plates which were kept for 2 to 3 weeks in a humidified CO2 incubator. At the end of the selection period, isolated clones were picked up, amplified, and further characterized by cyclic AMP experiments. For each cell line, one positive clone was subcloned before being used for all of the cyclic AMP, [^35S]-GTPγS and receptor binding experiments necessary to characterize them. The stable HEK293 cell line expressing the human MCH-R1 was HEK-hMCH-R1.
Membrane preparations were classically made as previously described. In brief, the HEK-hMCH-R cell line was grown to confluency, harvested in PBS buffer containing 2 mM EDTA and centrifuged at 10,000× g for 5 min (4°C). The resulting pellet was suspended in 20 mM Hepes buffer (pH 7.5), containing 5 mM EGTA and homogenized using a Kinematica polytron. The homogenate was then centrifuged (95,000× g, 30 min, 4 °C) and the resulting pellet was suspended in 50 mM HEPES buffer (pH 7.5), containing 10 mM MgCl2 and 2 mM EGTA. Aliquots of membrane preparations were stored at −80 °C until use. Binding has been described in numerous publications and the test was based on Mac Donald et al.’s description. […] Nonspecific binding is determined in the presence of 0.1 μM MCH. […] The filters are dried and then counted for radioactivity in a scintillation counter (Topcount, Packard) using a scintillation cocktail (Microscint 0, Packard). The results are expressed as percentage inhibition of the control radioligand specific binding. The standard reference compound is MCH, which was tested in each experiment at 8 concentrations to obtain a competition curve from which its IC50 is calculated. The high level of assay robustness and reproducibility of each control monitored over several decades (internal data base, Eurofins) and included in every assay ensure results’ reliability even when performed only twice. […]

[4] = Stability and metabolite identification on mouse hepatocytes; type: in vitro ADME; details: 20 µM, 5 h
Experimental: (§1) The stability of the compound was studied on hepatocyte cultures from Wistar rats and CD1 mice. The compound was incubated at 20 µM in the presence of 1.106 cells/mL for 5 h. The incubation was then stopped with acetonitrile (v/v) and the supernatant, after a brief centrifugation (2500 rpm, 5 min 4 °C) was submitted to LC-MS analysis, using a THERMO […] coupled to a Waters Acquity UPLC System equipped with a Waters Acquity UPLC C18 100 × 2.1 mm 1.7 µm column.

[5] = Stability and metabolite identification on rat hepatocytes; type: in vitro ADME; details: 20 µM, 5 h
Experimental: as §1

[6] = type: in vitro ADME; details: for half-life: plasma
Experimental: Plasmas from 3 species (including commercially available human healthy donors) were adjusted to pH 7.4 if necessary. Incubations were performed at a concentration of 1 µM of the compound at 37 °C (in the presence of a final concentration of DMSO of 2.5% v/v. The incubations were stopped at 0, 15, 30, 60 and 120 min by methanol. Each time point was run in sextuplets. The sampling plates were then centrifuged (2500 rpm, 45 min, 4 °C) and the supernatants pooled. Samples were analyzed for parent compound by LC-MS/MS. The percentage of parent compound remaining at each time point relative to the 0 min sample is then calculated from LC-MS/MS peak area ratios. Then, the stability in plasma was evaluated by incubating human, rat or mouse plasma with the compound(s) as follows: the product (0.1 µM in TRIS buffer pH 7.4 0.1% BSA) was incubated with the plasma at 37 °C. The disappearance of the product was measured at 15, 45, 120, 240 and 300 min by mass spectrometry. Incubations were carried out in a robot Star (Hamilton France, Villebon-sur-Yvette, France). At each sampling time, 50 µL of the reaction medium was removed and diluted with 100 µL of acetonitrile. After centrifugation (20 min at + 4 °C, 4000 rpm), 75 µL of the supernatants was transferred into a 384 well injection plate. Ten microliters were injected onto UPLC coupled with a XEVO TQS mass spectrometer system (Waters, Milford, MA, USA). The unchanged product is quantified using a reference sample (0.1 µM) prepared during the incubation process. A second reference sample at 0.01 µM is prepared in the same conditions to verify the linearity of the detection method. The peak height (or area) is measured to calculate the half-life of the compound.

[7] = target: T1, human MCH-R1; design: method as in PMID 19619599, PMID 23267345; details: cited from earlier work
[8] = rat plasma; details: 37 °C, up to 300 min
[9] = human plasma; details: 37 °C, up to 300 min

In the case of CN(C)c1nc(NC2CCC(NCCc3ccc(Br)cc3OC(F)(F)F)CC2)nc2ccccc12 (centres unmarked) [ATC0065], the behavioral concerns [1] is given as “some behavioral concerns have been reported”.

In the case of CSCC[C@H](NC(=O)[C@H](C)NC(=O)c1ccc(NC(=N)N)cc1)C(=O)N[C@@H](CC(C)C)C(=O)N[C@@H](CCCNC(=N)N)C(=O)N[C@H](C(=O)N[C@@H](CCCNC(=N)N)C(=O)N1CCC[C@H]1C(=O)N[C@@H](C)C(=O)N[C@@H](Cc1c[nH]c2ccccc12)C(=O)O)C(C)C [GPS13670] ({Benzoyl(4-guanidino)}-AMLRVRPAW-OH), the Ki [2] is reported as 30 nM and the “affinity at the MCH-R1 receptor (in words)” value [3] is reported as “poor binders”.

For CSCC[C@@H]1NC(=O)[C@@H](NC(=O)c2ccc(NC(=N)N)cc2)CCn2cc(nn2)C[C@@H](C(=O)N[C@@H](Cc2c[nH]c3ccccc23)C(=O)O)NC(=O)[C@@H]2CCCN2C(=O)[C@H](CCCNC(=N)N)NC(=O)C[C@H](C(C)C)NC(=O)[C@H](CCCNC(=N)N)NC(=O)[C@H](CC(C)C)NC1=O [GPS15290, pGua-[N3-hAla-MLR-βhVal-RP-hPra]-W-OH] ({Benzoyl(4-guanidino)}-[Aha]MLR[β3hV]RP[Pra]W-OH; triazole 1-8), the “antagonistic functionality (in words)” value [2] was “high picomolar range”, the Ki [2] was 0.028 nM and the stability on hepatocytes [4] was “mild stability”. The stability on hepatocytes [5] was “mild stability”, the “affinity at the MCH-R1 receptor (in words)” value [3] was “superior affinity” and the “stability in plasma (in words)” value ([6]; human) was “most stable compound”. For the same molecule, the half-life ([6]; human) was at least 300 min, the “initial dose remaining after incubation in mice plasma” value ([6]; mouse) was about 20% and the “stability in plasma (in words)” value ([6]; mouse) was “most stable compound”. For the same molecule, the half-life ([6]; mouse) was 173 ± 9 min, the “stability in plasma (in words)” value ([6]; rat) was “most stable compound” and the half-life ([6]; rat) was at least 300 min.

In the case of COc1cc(-n2cnc3cc(-c4ccc(Cl)cc4)sc3c2=O)ccc1OCCN1CCCC1 [GW803430], the behavioral concerns ([1]; in vivo) is given as “some behavioral concerns have been reported”.

In the case of CSCC[C@@H]1NC(=O)[C@@H](NC(=O)c2ccc(NC(=N)N)cc2)CSSC[C@@H](C(=O)N[C@@H](Cc2c[nH]c3ccccc23)C(=O)O)NC(=O)[C@@H]2CCCN2C(=O)[C@H](CCCNC(=N)N)NC(=O)[C@H](Cc2ccc(O)cc2)NC(=O)[C@H](C(C)C)NC(=O)[C@H](CCCNC(=N)N)NC(=O)[C@H](CC(C)C)NC1=O [S38151, p-guanidinobenzoyl-Des-Gly(10)-MCH(7-17), reference compound] ({Benzoyl(4-guanidino)}-CMLRVYRPCW-OH; disulfide 1-9; N-terminus and C-terminus assumed), the Ki [2] is given as 5 nM, the “affinity at the human MCH-R1 receptor” value [7] is given as “low nanomolar range” and the half-life ([6]; human, pH 7.4) is given as 14 ± 1 min. The half-life ([6]; mouse, pH 7.4) was 23 ± 1.8 min and the half-life ([6]; rat, pH 7.4) was 60 ± 3 min.

In the case of COCC1=C(C(=O)OC)[C@H](c2ccc(F)c(F)c2)N(C(=O)NCCCN2CCC(c3cccc(NC(C)=O)c3)CC2)C(=O)N1 [SNAP-7941], the behavioral concerns [1] is listed as “some behavioral concerns have been reported”.

In the case of “Gua-N3-hAla-Nle-Leu-Arg-βhVal-Arg-Pro-hPra-Trp”, the not cleaved [8] is reported as “not metabolized at all, 100% of the initial dose found at 300 (5 h)” and the not cleaved [9] is reported as “not metabolized at all, 100% of the initial dose found at 300 (5 h)”.

With pGua-[N3-hAla-MLR-βhVal-RP-hPra]-W-OH the not cleaved [8] was “not metabolized at all, 100% of the initial dose found at 300 (5 h)” and the not cleaved [9] was “not metabolized at all, 100% of the initial dose found at 300 (5 h)”.
